Drawing on US20250188079A1, “INHIBITING CYCLIC AMP-RESPONSIVE ELEMENT-BINDING PROTEIN (CREB)” (Forma Therapeutics, Inc., priority 2019, published 2025), this text covers IC50 for 49 compounds.

Sequence of CBP (Q92793 1085-1192): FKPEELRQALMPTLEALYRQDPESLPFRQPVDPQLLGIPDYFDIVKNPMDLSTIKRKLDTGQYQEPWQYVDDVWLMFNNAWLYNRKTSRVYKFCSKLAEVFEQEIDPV

The target of this experiment is CBP (Homo sapiens (Human), UniProt Q92793). In words: HTRF biochemical assay for CBP activity (TR-FRET, bromodomain). It is filed as binding. Particulars: geometric mean, 10-point 3-fold dilution 33 μM to 1.7 nM, read-out: BROMO IC50 TRF TB CBP (μM gmean). As for the experimental part:
Example 1: HTRF Biochemical Assay for CBP Activity
The assay was performed in a final volume of 6 μL in assay buffer containing 50 mM Hepes (pH 7.5, (0.5M Hepes, pH 7.5 solution; Teknova H1575)), 0.5 mM GSH, 0.01% BGG (0.22 p M filtered, Sigma, G7516-25G), 0.005% BSA (0.22 μM filtered, EMD Millipore Corporation, 126575) and 0.01% Triton X-100 (Sigma, T9284-10L). Nanoliter quantities of 10-point, 3-fold serial dilution in DMSO were pre-dispensed into 1536 assay plates (Corning, #3724BC) for a final test concentration of 33 μM to 1.7 nM, top to lowest dose, respectively. 3 μL of 2×Protein and 3 μL of 2×Peptide Ligand were added to assay plates (pre-stamped with compound). Plates were incubated for varying times at room temperature prior to measuring the signal. TR-FRET (Time-Resolved Fluorescence Resonance Energy Transfer) was measured on the PHERAstar (BMG, equipped with HTRF optic module [337/520/490]) or on the Envision (PerkinElmer, equipped with the TRF Laser unit, TRF dual mirror D400/D505 and emission filters M520 and M495). Data were reported as percent inhibition compared with control wells based on the following equation: % inh=1−((TR-FRET ratio−AveLow)/(AveHigh−AveLow)) where TR-FRET ratio=(Fluorescence at 520 nm/Fluorescence at 490 nm)*10000), AveLow=average TR-FRET ratio of no enzyme control (n=32), and AveHigh=average TR-FRET ratio of DMSO control (n=32). IC50 values were determined by curve fitting of the standard 4 parameter logistic fitting algorithm included in the Activity Base software package: IDBS XE Designer Model205. Data is fitted using the Levenburg Marquardt algorithm. As set forth in Table 2 below, an IC50 value of greater than or equal to 0.001 μM and less than or equal to 0.01 μM is marked “++++”; a value greater than 0.01 μM and less than or equal to 0.1 μM is marked “+++”; a value greater than 0.1 μM and less than or equal to 1 μM is marked “++”; and a value greater than 1 μM and less than 1000 μM is marked “+.” Compounds that were not tested in a particular assay are marked “NT.”
On the technique in general: In TR-FRET formats the signal depends on donor and acceptor labels being close together.
For orientation: IC50 means the concentration that gives 50% inhibition. `COC(=O)N1CCc2ccc3c(nc(C4CCCCC4)n3[C@@H](C)C[C@@H]3CCCC[C@@H]3C(=O)O)c2C1` [Compound 120]: the IC50 lay within 0.001 to 0.01 µM. Regarding `COC(=O)N1CCc2ccc3c(nc(-c4ccccn4)n3[C@H](C)Cc3ccccc3)c2C1` [Compound 304], the IC50 lay in the range of 0.1 to 1 µM. As for `COC(=O)N1CCc2ccc3c(nc([C@H]4CC[C@H](C(=O)O)CC4)n3[C@H](C)Cc3cccc(F)c3F)c2C1` [Compound 266], the IC50 was in the range of 0.01 to 0.1 µM. With `COC(=O)N1CCc2ccc3c(nc(C4CCCCC4)n3[C@H](C)C[C@H]3CCCC[C@@H]3C(=O)O)c2C1` [Compound 112], the IC50 lay in the range of 0.001 to 0.01 µM. In the case of `COC(=O)N1CCc2ccc3c(nc([C@H]4CCCOC4)n3C[C@@H](C(=O)O)c3ccc(C)cc3)c2C1` [Compound 58], the IC50 lay within 0.001 to 0.01 µM. Take `COC(=O)N1CCc2ccc3c(nc([C@H]4CC[C@H](C(=O)O)CC4)n3[C@@H](C)Cc3cnccn3)c2C1` [Compound 186]: the IC50 was 0.01 to 0.1 µM. For `COC(=O)N1CCc2ccc3c(nc(-c4ccncc4)n3[C@@H](C)Cc3ccccc3)c2C1` [Compound 109], the IC50 was in the range of 0.001 to 0.01 µM. In the case of `COC(=O)N1CCc2ccc3c(nc(C4CCCCC4)n3C[C@H](CC(=O)O)c3ccccc3C)c2C1` [Compound 115], the IC50 was in the range of 0.001 to 0.01 µM. For `COC(=O)N1CCc2ccc3c(nc([C@H]4CCC[C@H](C(=O)O)C4)n3[C@H](C)Cc3ccccc3)c2C1` [Compound 344] the value was 0.1 to 1 µM; for `COC(=O)N1CCc2ccc3c(nc([C@H]4CC[C@H](C(=O)O)CC4)n3C3(Cc4ccccc4)COC3)c2C1` [Compound 271], 0.01 to 0.1 µM. In the case of `COC(=O)N1CCc2c(Cl)cc3c(nc([C@H]4CC[C@H](C(=O)O)CC4)n3[C@@H](C)Cc3ccccc3)c2C1` [Compound 81], the IC50 was 0.001 to 0.01 µM. Regarding `COC(=O)N1CCc2ccc3c(nc(C4CCCCC4)n3C[C@H](C(=O)O)c3cc(F)c(Cl)cc3OC)c2C1` (single isomer, unassigned) [Compound 229], the IC50 fell in the range of 0.01 to 0.1 µM. With `COC(=O)N1CCc2ccc3c(nc([C@H]4CCCOC4)n3C[C@H](C(=O)O)c3ccc(C)cc3)c2C1` [Compound 53], the IC50 was in the range of 0.001 to 0.01 µM. `COC[C@H](Cc1ccccc1)n1c2ccc3c(c2nc1[C@H]1CC[C@H](C(=O)O)CC1)CN(C(=O)OC)CC3` [Compound 299]: the IC50 was 0.1 to 1 µM. As to `COC(=O)N1CCc2ccc3c(nc([C@H]4CC[C@H](C(=O)O)CC4)n3[C@@H](C)Cc3c(C)cccc3C)c2C1` [Compound 6], the IC50 was 0.001 to 0.01 µM. For the compound `COC(=O)N1CCc2ccc3c(nc(C4CCCCC4)n3C[C@H]3CCCC[C@@H]3C(=O)O)c2C1` [Compound 196], the IC50 is 0.01 to 0.1 µM. On to `COC(=O)N1CCc2ccc3c(nc([C@H]4CC[C@@H](S(N)(=O)=O)CC4)n3[C@@H](C)Cc3ccccc3)c2C1` [Compound 166], for which the IC50 fell in the range of 0.001 to 0.01 µM. The result for `COC(=O)N1CCc2ccc3c(nc([C@H]4CC[C@H](OC)CC4)n3C[C@H](C(=O)O)c3ccccc3)c2C1` [Compound 1] reads 0.001 to 0.01 µM; that for `COC(=O)N1CCc2ccc3c(nc([C@H]4CC[C@H](C(=O)O)CC4)n3[C@H](C)Cc3ccc(F)c(OC)c3)c2C1` [Compound 286], 0.01 to 0.1 µM. As for `COC(=O)N1CCc2ccc3c(nc(C4CCCCC4)n3C[C@@H](CC(=O)O)c3ccccc3)c2C1` [Compound 8], the IC50 lay within 0.001 to 0.01 µM. Regarding `COC(=O)N1CCc2ccc3c(nc(C4CCCCC4)n3CC[C@H]3CCCC[C@H]3C(=O)O)c2C1` [Compound 193], the IC50 lay in the range of 0.01 to 0.1 µM. On to `COC(=O)N1CCc2ccc3c(nc([C@H]4CC[C@@](C)(C(=O)O)CC4)n3[C@@H](C)Cc3ccccc3)c2C1` [Compound 49], for which the IC50 fell in the range of 0.001 to 0.01 µM. For the compound `COC(=O)N1CCc2ccc3c(nc([C@H]4CCC[C@H](C(=O)O)C4)n3C(C)Cc3ccccc3Cl)c2C1` (stereo in doubt) [Compound 19, (1S,3S)-3-{3-[(2R)-1-(2-chlorophenyl)propan-2-yl]-8-(methoxycarbonyl)-3H,6H,7H,8H,9H-imidazo[4,5-h]isoquinolin-2-yl}cyclohexane-1-carboxylic acid], the IC50 fell in the range of 0.001 to 0.01 µM.

As to `COC(=O)N1CCc2c(C(=O)O)cc3c(nc(N4CCCCC4)n3C[C@H](C)c3ccccc3)c2C1` [Compound 247], the IC50 was in the range of 0.01 to 0.1 µM. With `COC(=O)N1CCc2ccc3c(nc([C@H]4CC[C@H](C(=O)O)CC4)n3[C@H](C)Cc3ccccc3Cl)c2C1` [Compound 295], the IC50 fell in the range of 0.1 to 1 µM. As to `COC(=O)N1CCc2ccc3c(nc(C4CCCCC4)n3[C@H](C)C[C@H]3CC[C@@H](C(=O)O)CC3)c2C1` [Compound 142], the IC50 is 0.001 to 0.01 µM. The result for `COC(=O)N1CCc2ccc3c(nc([C@H]4CC[C@H](C(=O)O)CC4)n3[C@@H](C)Cc3ccc(C)c(F)c3)c2C1` (single isomer, unassigned) [Compound 2] reads 0.001 to 0.01 µM; that for `COC(=O)N1CCc2ccc3c(nc(C4CCCC4)n3C[C@H](CC(=O)O)c3ccccc3)c2C1` (single isomer, unassigned) [Compound 174], 0.01 to 0.1 µM; that for `COC(=O)N1CCc2ccc3c(nc([C@@H]4CCC[C@@H](C(=O)O)C4)n3[C@@H](C)Cc3ccccc3Cl)c2C1` (single isomer, unassigned) [Compound 20], 0.001 to 0.01 µM.

In the case of `COC(=O)N1CCc2ccc3c(nc([C@@H]4CCC[C@@H](C(=O)O)C4)n3CC[C@H]3CC[C@@H](OC)CC3)c2C1` [Compound 215], the IC50 was in the range of 0.01 to 0.1 µM. As to `COC(=O)N1CCc2c(C#N)cc3c(nc([C@H]4CC[C@H](C(=O)O)CC4)n3CCc3ccccc3)c2C1` [Compound 121], the IC50 was in the range of 0.001 to 0.01 µM. As for `COC(=O)N1CCc2ccc3c(nc(C45CC(C4)C5)n3C[C@@H](C(=O)O)c3ccccc3)c2C1` [Compound 246], the IC50 fell in the range of 0.01 to 0.1 µM. For the compound `COC(=O)N1CCc2ccc3c(nc(-c4ccc(C(=O)O)c(F)c4)n3[C@@H](C)Cc3ccccc3)c2C1` [Compound 133], the IC50 lay within 0.001 to 0.01 µM. As for `COC(=O)N1CCc2ccc3c(nc([C@H]4CC[C@H](C(=O)O)CC4)n3[C@H](C)Cc3cccc(C)c3)c2C1` [Compound 334], the IC50 is 0.1 to 1 µM. Regarding `COC(=O)N1CCc2ccc3c(nc([C@H]4CC[C@H](C(=O)O)CC4)n3C[C@@H](OC)c3ccccc3)c2C1` [Compound 214], the IC50 was 0.01 to 0.1 µM. For `COC(=O)N1CCc2ccc3c(nc([C@H]4CC[C@H](C(=O)NS(C)(=O)=O)CC4)n3[C@@H](C)Cc3ccccc3)c2C1` (single isomer, unassigned) [Compound 15] the value was 0.001 to 0.01 µM. The result for `COC(=O)N1CCc2c(C(=O)O)cc3c(nc(C4CCCCC4)n3CCc3ccccc3)c2C1` [Compound 149] reads 0.001 to 0.01 µM; that for `COC(=O)N1CCc2ccc3c(nc([C@@H]4CCC[C@@H](C(=O)O)C4)n3CC[C@H]3CC[C@H](OC)CC3)c2C1` [Compound 156], 0.001 to 0.01 µM. For the compound `COC(=O)N1CCc2c(Cl)cc3c(nc(C4CCCCC4)n3C[C@@H](C(=O)O)c3ccccc3)c2C1` [Compound 56], the IC50 lay in the range of 0.001 to 0.01 µM. `COC(=O)N1CCc2cc(C#N)c3c(nc([C@H]4CC[C@H](C(=O)O)CC4)n3CCc3ccccc3)c2C1` [Compound 153]: the IC50 was in the range of 0.001 to 0.01 µM.

Turning to `COC(=O)N1CCc2ccc3c(nc([C@H]4CCC[C@H](C(=O)O)C4)n3Cc3cccc(OC)n3)c2C1` [Compound 277], the IC50 lay in the range of 0.01 to 0.1 µM. On to `COC(=O)N1CCc2ccc3c(nc(C4CCCCC4)n3CC(C(=O)O)C3CCCCC3)c2C1` (stereo not shown) [Compound 126], for which the IC50 fell in the range of 0.001 to 0.01 µM.

Turning to `COC(=O)N1CCc2ccc3c(nc(C4CCN(C(C)=O)CC4)n3C[C@@H](C(=O)O)c3ccccc3)c2C1` [Compound 62], the IC50 lay within 0.001 to 0.01 µM.

Consider “(1R,3R)-3-[3-[(2R)-2-(3,4-difluorophenyl)propyl]-8-(methoxycarbonyl)-3H,6H,7H,8H,9H-imidazo[4,5-h]isoquinolin-2-yl]cyclohexane-1-carboxylic acid [Compound 28]”, for which the IC50 was 0.001 to 0.01 µM. On to `COC(=O)N1CCc2ccc3c(nc(-c4cccnc4)n3[C@@H](C)Cc3ccccc3)c2C1` [Compound 127], for which the IC50 lay in the range of 0.001 to 0.01 µM.

As to `COC(=O)N1CCc2ccc3c(nc([C@H]4CC[C@H](C(=O)O)CC4)n3[C@@H](C)Cc3ccc(F)c(OC)c3)c2C1` [Compound 43], the IC50 was 0.001 to 0.01 µM. Turning to `COC(=O)N1CCc2ccc3c(nc(C4CCCCC4)n3C[C@@H]3CCCC[C@@H]3C(=O)O)c2C1` [Compound 195], the IC50 lay within 0.01 to 0.1 µM. In the case of `COC(=O)N1CCc2ccc3c(nc([C@H]4CC[C@H](C(=O)O)CC4)n3[C@@H](C)Cc3ccc(OC(F)F)cc3)c2C1` [Compound 69], the IC50 lay in the range of 0.001 to 0.01 µM. With `COC(=O)N1CCc2ccc3c(nc(C4CCCCC4)n3C[C@@H](C(=O)O)c3ccccc3)c2C1` [Compound 197], the IC50 lay in the range of 0.01 to 0.1 µM.
